# How the values were obtained:
# [1] = cited from earlier work
# [2] = Hansen solubility parameters estimated with HSPiP program; settings: HSP parameters of ENE5 based on composition
# [3] = Experimental saturated solubility of ENO in excipients; assay type: physicochemical; settings: thermodynamic from solid
# [4] = cited from earlier work; remark: listed apart in the source
smiles,measurement,setting,value
CCOCCOCCO [Transcutol-HP],HLB,[1],14.5
CCCCCCCC/C=C\CCCCCCCC(=O)OCCOCC(OCCO)C1OCC(OCCO)C1OCCO (stereo not shown) [Tween 80],"δd, share of the component in ENE5 based on composition",[2],2.52
same,"δh, share of the component in ENE5 based on composition",[2],1.425
same,"δp, share of the component in ENE5 based on composition",[2],0.975
"CCn1cc(C(=O)O)c(=O)c2cc(F)c(N3CCNCC3)nc21 [ENO, Enoxacin]",solubility at 72 h,"[3]; C90, 40 °C",2800 µg/mL
same,solubility at 72 h,"[3]; Miglyol 812N, 40 °C, oil or lipid",5400 µg/mL
same,solubility at 72 h,"[3]; NMP (N-methyl-2-pyrrolidone), 40 °C",6700 µg/mL
same,solubility at 72 h,"[3]; Tween 80, 40 °C",1500 µg/mL
same,aqueous solubility,[4]; an experimental value,290 µg/mL
same,pKa,[4],5.5
"CN1CCCC1=O [NMP, N-methyl-2-pyrrolidone]","δd, share of the component in ENE5 based on composition",[2],8.1
same,"δh, share of the component in ENE5 based on composition",[2],3.33
same,"δp, share of the component in ENE5 based on composition",[2],4.46

# Source: paper PMC10061639 (ACS Omega, 2023)
